Source: article PMC10043390, “Novel 2-substituted-5-(4-chloro-2-phenoxy)phenyl-1,3,4-oxadiazole derivatives, ligands of GABAA/benzodiazepine receptor complex: Design, synthesis, radioligand binding assay, and pharmacological evaluation” (EXCLI Journal, 2023)
Several values for one entry are separate records, joined by “and”; a condition that tells them apart may be missing. Equal values may be shown once. Read-outs that look alike come from different tables or passages of the source.

Key:
[1] = system: male NMRI albino mice; assay: Elevated plus-maze test; type: in vivo; details: for % duration in close arms / % duration in open arms: raw data of single animals
Description: The elevated plus-maze device was made up of Plexiglas, and it contained two open arms (30×5×0.5 cm) and two closed arms (30×5×35 cm) with an open roof. They were arranged so that the open arms were opposite to […]. The entire maze was elevated at a height of 1 meter. The mice were individually placed in the central square of the maze (5×5 cm) where all four arms were connected together after 30 minutes of intraperitoneal (i.p) administration of the test compounds. The time spent in the open and closed arms was recorded.

[2] = system: male NMRI albino mice; assay: Maximal electroshock (MES) test; type: in vivo
Description: (§1) To assess the anticonvulsant activity of the novel compound 6a, we used PTZ-induced convulsion and MES tests (Guerrini et al., 2008[10]; Lankau et al., 2007[13]). In both models, the ability of the novel compound to protect mice against induced seizures was evaluated. Animals were closely observed for 30 minutes after injection of the lethal dose of PTZ (100 mg/kg) and the number of dead mice after convulsion was reported. In the MES test, each subject was observed closely and the incidence of hind limb tonic extension (HLTE) in the subjects after application of MES (60 Hz, 37.2 mA, and 0.25 s) was reported.
(§2) Kd and Bmax in radioligand binding assay were calculated by non-linear regression analysis of the saturation and competitive curve data (Program Prism, Graph Pad, San Diego, CA). The IC50s of the novel compounds in binding studies were determined using […]. […] In PTZ and MES tests, the data were presented as a mean with 95% confidence intervals. In the rest of the pharmacological evaluations, one-way ANOVA with Tukey's HSD post-hoc test was used. All the data were presented as mean ± SEM and P<0.05 was considered statistically significant.

[3] = target: benzodiazepine receptor of rat brains; assay: Radioligand receptor binding assay ([3H]-flumazenil competitive binding); details: for Ki: [3H]-flumazenil competitive binding; for Specific binding of [3H]flumazenil: mean ± SEM, n=3; for IC50: reduction of specific binding of [3H]-flumazenil by 50 %, triplicates, 30 °C, 35 min
Description: All of the binding assays were performed in triplicates in a total volume of 500 µL at 30 °C for 35 min (Ahmadi et al., 2013[1]).
as §2

[4] = system: male NMRI albino mice; assay: PTZ-induced lethal convulsion test; type: in vivo
Description: as §1, §2

[5] = system: male NMRI albino mice; assay: Pentobarbital-induced sleep test; type: in vivo; details: for Sleeping time: pentobarbital 40 mg/kg i.p., raw data of single animals
From the text: The duration of the loss of the righting reflex was considered as the sleeping time. […] For prevention of hypothermia during the experiment, animals were placed on an electric blanket (Khoramjouy et al., 2021[11]).

[6] = system: male NMRI albino mice; details: for latency of entrance to the dark compartment: testing day, raw data of single animals
Description: For the mice to get adapted to the lab environment, we transferred them to the lab 60 minutes before the tests started. Mice were randomly selected for all the experimental groups and each subject was tested only once for the pharmacological evaluations.
Distilled water was used as a solvent (vehicle) of PTZ and pentobarbital. Both, PTZ and pentobarbital were injected i.p. 5 ml/kg.
The passive avoidance cage (Malek Teb Co., Tehran) consists of two different compartments separated by a guillotine door. One of the compartments was black and dark while the other one was white and lighted. For the training trial, each mouse was placed in the white and light compartment and facing away from the guillotine door for 30 seconds. Next, the guillotine door was opened and the mouse was able to freely enter the black and dark compartment. When the mouse entered the black and dark compartment with four paws, it received an electric unpleasant stimulus (0.5 mA, 2 seconds) through the grid floor. On the testing day (after 24 hours), we placed the mouse in the lighted compartment and there was no electrical stimulus. We reported the latency to enter the black and dark compartment while the guillotine door was open.

[7] = doses of 5 and 10 mg/kg, over 10 minutes

O=C(Nc1ccccc1)c1nnc(-c2ccc(Cl)cc2Oc2ccccc2)o1 [6a, 5-(4-chloro-2-phenoxyphenyl)-N-phenyl-1,3,4-oxadiazole-2-carboxamide]
% duration in close arms ([1]; 1.25 mg/kg i.p.): 65.00% (2×) and 67.00% and 56.00% and 60.00% and 53.00% and 64.00% and 59.00% | % duration in open arms ([1]; 1.25 mg/kg i.p.): 35.00% (2×) and 33.00% and 44.00% and 40.00% and 47.00% and 36.21% and 41.00% | % duration in close arms ([1]; 5 mg/kg i.p.): 48.50% (2×) and 44.54% and 44.40% and 43.48% and 38.16% and 47.65% and 51.65% | % duration in open arms ([1]; 5 mg/kg i.p.): 51.49% (2×) and 55.45% and 55.59% and 56.51% and 61.83% and 52.34% and 48.34% | % duration in close arms ([1]; 10 mg/kg i.p.): 42.44% and 46.28% and 47.65% and 43.17% and 37.57% and 45.37% and 41.04% and 26.78% | % duration in open arms ([1]; 10 mg/kg i.p.): 57.55% and 53.71% and 52.34% and 56.82% and 62.42% and 54.62% and 58.96% and 73.22% | effect on close arm time (CAT) [1, 7]: decrease the close arm time | effect on open arm time (OAT) [1, 7]: increase the open arm time | anticonvulsant activity in presence of flumazenil ([2]; MES test, flumazenil 10 mg/kg): can antagonize the anticonvulsant activity | ED50 ([2]; Mus musculus, ip, i.p. 30 min before MES (60 Hz, 37.2 mA, 0.25 s), HLTE, mean with 95% confidence intervals): 27.8 mg/kg | Ki [3]: 0.44 nM | Specific binding of [3H]flumazenil ([3]; log[L] -7.0): 0.3167±0.0378 cpm | Specific binding of [3H]flumazenil ([3]; log[L] -8.0): 0.4000±0.0412 cpm | Specific binding of [3H]flumazenil ([3]; log[L] -8.5): 0.4200±0.0102 cpm | Specific binding of [3H]flumazenil ([3]; log[L] -9.0): 0.4667±0.0090 cpm | Specific binding of [3H]flumazenil ([3]; log[L] -9.5): 0.5100±0.0156 cpm | Specific binding of [3H]flumazenil ([3]; log[L] -10.0): 0.5800±0.0156 cpm | Specific binding of [3H]flumazenil ([3]; log[L] -11.0): 0.6267±0.0034 cpm | IC50 [3]: 0.73 ± 0.17 nM | ED50 ([4]; Mus musculus, i.p. 30 min before PTZ 100 mg/kg, mean with 95% confidence intervals): 72 mg/kg | anticonvulsant activity in presence of flumazenil ([4]; PTZ test, flumazenil 10 mg/kg): can antagonize the anticonvulsant activity | Sleeping time ([5]; 1.25 mg/kg i.p.): 26 min and 38 min and 39 min and 46 min and 28 min and 20 min and 24 min and 32 min | Sleeping time ([5]; 5 mg/kg i.p.): 48 minute and 44 minute and 50 minute (2×) and 43 minute and 57 minute and 40 minute and 56 minute | Sleeping time ([5]; 10 mg/kg + Flumazenil (10 mg/kg)): 43 minute (2×) and 34 minute (2×) and 27 minute (2×) and 32 minute and 29 minute | Sleeping time ([5]; 10 mg/kg i.p.): 53 minute and 64 minute and 47 minute (2×) and 43 minute and 40 minute and 55 minute and 49 minute | effect on sleeping time ([5]; dose of 10 and 5 mg/kg, P<0.001): increased the sleeping time | hypnotic effect in presence of flumazenil ([5]; with flumazenil 10 mg/kg, P<0.001): prevented by flumazenil | latency of entrance to the dark compartment ([6]; 1.25 mg/kg i.p.): 320 second and 380 second and 393 second and 467 second and 480 second (2×) and 420 second (2×) | latency of entrance to the dark compartment ([6]; 5 mg/kg i.p.): 480 second (2×) and 440 second and 344 second and 343 second and 380 second and 407 second and 251 second | latency of entrance to the dark compartment ([6]; 10 mg/kg i.p.): 320 s and 460 s and 407 s and 230 s and 400 s and 420 s and 480 s and 326 s | effect on latency to enter the dark compartment ([6]; doses of 1.25, 2.5, 5, and 10 mg/kg): did not show any significant effect

O=C(Nc1ccccn1)c1nnc(-c2ccc(Cl)cc2Oc2ccccc2)o1 [6b, 5-(4-chloro-2-phenoxyphenyl)-N-(pyridin-2-yl)-1,3,4-oxadiazole-2-carboxamide]
melting point: 198 to 200 °C | Ki [3]: 2.35 nM | Specific binding of [3H]flumazenil ([3]; log[L] -7.0): 0.2333±0.0148 cpm | Specific binding of [3H]flumazenil ([3]; log[L] -8.0): 0.3733±0.0223 cpm | Specific binding of [3H]flumazenil ([3]; log[L] -8.5): 0.4267±0.0090 cpm | Specific binding of [3H]flumazenil ([3]; log[L] -9.0): 0.5233±0.0180 cpm | Specific binding of [3H]flumazenil ([3]; log[L] -9.5): 0.5467±0.0068 cpm | Specific binding of [3H]flumazenil ([3]; log[L] -10.0): 0.5900±0.0118 cpm | Specific binding of [3H]flumazenil ([3]; log[L] -11.0): 0.6433±0.0122 cpm | IC50 [3]: 3.84 ± 0.1 nM

Cc1cccc(NC(=O)c2nnc(-c3ccc(Cl)cc3Oc3ccccc3)o2)n1 [6c, 5-(4-chloro-2-phenoxyphenyl)-N-(6-methylpyridin-2-yl)-1,3,4-oxadiazole-2-carboxamide]
melting point: 183.2 to 184.3 °C | Ki [3]: 0.76 nM | Specific binding of [3H]flumazenil ([3]; log[L] -7.0): 0.3000±0.0059 cpm | Specific binding of [3H]flumazenil ([3]; log[L] -8.0): 0.3100±0.0102 cpm | Specific binding of [3H]flumazenil ([3]; log[L] -8.5): 0.3767±0.0090 cpm | Specific binding of [3H]flumazenil ([3]; log[L] -9.0): 0.4467±0.0207 cpm | Specific binding of [3H]flumazenil ([3]; log[L] -9.5): 0.5367±0.0122 cpm | Specific binding of [3H]flumazenil ([3]; log[L] -10.0): 0.5700±0.0156 cpm | Specific binding of [3H]flumazenil ([3]; log[L] -11.0): 0.5733±0.0207 cpm | IC50 [3]: 1.25 ± 0.09 nM

Cc1ccnc(NC(=O)c2nnc(-c3ccc(Cl)cc3Oc3ccccc3)o2)c1 [6d, 5-(4-chloro-2-phenoxyphenyl)-N-(4-methylpyridin-2-yl)-1,3,4-oxadiazole-2-carboxamide]
melting point: 188.2 to 189.1 °C | Ki [3]: 0.88 nM | Specific binding of [3H]flumazenil ([3]; log[L] -7.0): 0.3000±0.0059 cpm | Specific binding of [3H]flumazenil ([3]; log[L] -8.0): 0.3100±0.0102 cpm | Specific binding of [3H]flumazenil ([3]; log[L] -8.5): 0.3767±0.0090 cpm | Specific binding of [3H]flumazenil ([3]; log[L] -9.0): 0.4467±0.0207 cpm | Specific binding of [3H]flumazenil ([3]; log[L] -9.5): 0.5367±0.0122 cpm | Specific binding of [3H]flumazenil ([3]; log[L] -10.0): 0.5700±0.0156 cpm | Specific binding of [3H]flumazenil ([3]; log[L] -11.0): 0.5733±0.0207 cpm | IC50 [3]: 1.44 ± 0.09 nM

O=C(NN1CCOCC1)c1nnc(-c2ccc(Cl)cc2Oc2ccccc2)o1 [6e, 5-(4-chloro-2-phenoxyphenyl)-N-morpholino-1,3,4-oxadiazole-2-carboxamide]
melting point: 159 to 161 °C | Ki [3]: 0.95 nM | Specific binding of [3H]flumazenil ([3]; log[L] -7.0): 0.2900±0.0059 cpm | Specific binding of [3H]flumazenil ([3]; log[L] -8.0): 0.3067±0.0090 cpm | Specific binding of [3H]flumazenil ([3]; log[L] -8.5): 0.3600±0.0060 cpm | Specific binding of [3H]flumazenil ([3]; log[L] -9.0): 0.5867±0.0090 cpm | Specific binding of [3H]flumazenil ([3]; log[L] -9.5): 0.6033±0.0189 cpm | Specific binding of [3H]flumazenil ([3]; log[L] -10.0): 0.6667±0.0148 cpm | Specific binding of [3H]flumazenil ([3]; log[L] -11.0): 0.6967±0.0148 cpm | IC50 [3]: 1.55 ± 0.1 nM

O=C(NC1CCCCC1)c1nnc(-c2ccc(Cl)cc2Oc2ccccc2)o1 [6f, 5-(4-chloro-2-phenoxyphenyl)-N-cyclohexyl-1,3,4-oxadiazole-2-carboxamide]
melting point: 132 to 133 °C | Ki [3]: 1.53 nM | Specific binding of [3H]flumazenil ([3]; log[L] -7.0): 0.2133±0.0272 cpm | Specific binding of [3H]flumazenil ([3]; log[L] -8.0): 0.3533±0.0189 cpm | Specific binding of [3H]flumazenil ([3]; log[L] -8.5): 0.4000±0.0118 cpm | Specific binding of [3H]flumazenil ([3]; log[L] -9.0): 0.4533±0.0148 cpm | Specific binding of [3H]flumazenil ([3]; log[L] -9.5): 0.5500±0.0156 cpm | Specific binding of [3H]flumazenil ([3]; log[L] -10.0): 0.6133±0.0296 cpm | Specific binding of [3H]flumazenil ([3]; log[L] -11.0): 0.5933±0.0207 cpm | IC50 [3]: 2.51 ± 0.13 nM
